From patent US20080242661A1, “Novel compounds useful for the treatment of degenerative & inflammatory diseases” (priority 2006, published 2008)
pIC50: −log10 of the molar value.

What follows are compounds tested against purified PDE1A enzyme (Homo sapiens, UniProt P54750) (assay: In vitro PDE1A assay, dose response (Biomol Cyclic Nucleotide Phosphodiesterase Assay Kit, colorimetric)). Conditions: 100 μM cAMP, 45 min at 37° C., 8 points from 20 μM, duplicate.
Format: biochemical
Description: For the dose response and further screening, we used the Cyclic Nucleotide Phosphodiesterase Assay Kit from Biomol, a colorimetric, non-radioactive assay. The basis for the assay is the cleavage of cAMP by PDE1A. The 5′AMP is further cleaved into the nucleoside and phosphate by the enzyme 5′-nucleotidase (catnr KI-307). The phosphate released due to enzymatic cleavage is quantified using BIOMOL GREEN™ reagent (catnr AK-111) in a modified Malachite Green assay 1,2. A PDE1A inhibitor will result in a decrease of the signal.
For the enzymatic reaction a mix of 25 μL with purified PDE1A enzyme, 100 μM cAMP, 5′Nucleotidase and the compound is made in a clear 384-plate. The reaction buffer is Tris 20 mM pH 7.4, 4 μg/ml calmodulin, 3 mM MgCl2, 1.5 mM CaCl2, 0.2 mg/mL BSA and 0.001% Brij-35. After an incubation of 45 minutes at 37° C., the reaction is stopped by the addition of 50 μL BIOMOL GREEN™ reagent. After 30 minutes incubation at room temperature, the readout is performed on the Envision (absorption at 615 nm).
All compounds are tested in duplicate starting from 20 μM followed by a ⅓ serial dilution, 8 points (20 μM-6.67 μM-2.22 μM-740 nM-247 nM-82 nM-27 nM-9 nM) in a final concentration of 1% DMSO. As the positive dose response control compound Vardenafil is used. For the calculation of z′ and PIN values 10 μM Vardenafil is used as positive control (100% inhibition) and 1% DMSO as negative control (0% inhibition).
The following compounds have been or can be prepared according to the synthetic methods described above. For the purpose of Table 2 below, activity of each compound, which can be determined using the PDE1A assay method described in above, is expressed as follows: […]

| Structure (SMILES) | pIC50 |
| --- | --- |
| CCCc1nn(C)c2c(=O)[nH]c(N(C)Cc3cccc(-c4cncnc4)c3)nc12 [Example 12, 1-methyl-5-(methyl(3-(pyrimidin-5-yl)benzyl)amino)-3-propyl-1H-pyrazolo[4,3-d]pyrimidin-7(6H)-one] | 6.30 to 7.00 |
| Cn1nc(C2CCCC2)c2nc(NCc3ccc(Cl)c(Cl)c3)[nH]c(=O)c21 [Example 76, 3-cyclopentyl-5-(3,4-dichlorobenzylamino)-1-methyl-1H-pyrazolo[4,3-d]pyrimidin-7(6H)-one] | 6.30 to 7.00 |
| CCCc1nn(C)c2c(=O)[nH]c(N(C)Cc3nn(C)c4ccccc34)nc12 [Example 35, 1-methyl-5-(methyl((1-methyl-1H-indazol-3-yl)methyl)amino)-3-propyl-1H-pyrazolo[4,3-d]pyrimidin-7(6H)-one] | < 6.30 |
| CCCCN(Cc1ccc(Cl)c(Cl)c1)c1nc2c(CCC)nn(C)c2c(=O)[nH]1 [Example 46, 5-(butyl(3,4-dichlorobenzyl)amino)-1-methyl-3-propyl-1H-pyrazolo[4,3-d]pyrimidin-7(6H)-one] | 6.30 to 7.00 |
| CCCc1nn(C)c2c(=O)[nH]c(NCc3ccc4ccn(C)c4c3)nc12 [Example 69, 1-methyl-5-((1-methyl-1H-indol-6-yl)methylamino)-3-propyl-1H-pyrazolo[4,3-d]pyrimidin-7(6H)-one] | 6.30 to 7.00 |
| CCCc1nn(C)c2c(=O)[nH]c(NCc3cccc(-n4cccc4)c3)nc12 [Example 64] | 6.30 to 7.00 |
| CCCc1nn(C)c2c(=O)[nH]c(N(C)Cc3cccc(OCCN4CCOCC4)c3)nc12 [Example 48, 1-methyl-5-(methyl(3-(2-morpholinoethoxy)benzyl)amino)-3-propyl-1H-pyrazolo[4,3-d]pyrimidin-7(6H)-one] | < 6.30 |
| CCCc1nn(C)c2c(=O)[nH]c(N(CCC)CCc3ccc(Cl)cc3)nc12 [Example 75, 5-((4-chlorophenethyl)(propyl)amino)-1-methyl-3-propyl-1H-pyrazolo[4,3-d]pyrimidin-7(6H)-one] | 6.30 to 7.00 |
| CN(Cc1ccc(Cl)c(Cl)c1)c1nc2c(C3CCCC3)nn(C)c2c(=O)[nH]1 [Example 77, 3-cyclopentyl-5-((3,4-dichlorobenzyl)(methyl)amino)-1-methyl-1H-pyrazolo[4,3-d]pyrimidin-7(6H)-one] | > 7.00 |
| CCCc1nn(C)c2c(=O)[nH]c(N(C)Cc3ccc(OC)cc3)nc12 [Example 9, 5-((4-methoxybenzyl)(methyl)amino)-1-methyl-3-propyl-1H-pyrazolo[4,3-d]pyrimidin-7(6H)-one] | > 7.00 |
| CCC(CC)CN(Cc1cccc(N2CCOCC2)c1)c1nc2c(C(C)(C)C)nn(C)c2c(=O)[nH]1 [Example 109, 3-tert-butyl-5-((2-ethylbutyl)(3-morpholinobenzyl)amino)-1-methyl-1H-pyrazolo[4,3-d]pyrimidin-7(6H)-one] | > 7.00 |
| CCCc1nn(C)c2c(=O)[nH]c(N(C)Cc3ccc(Cl)cc3)nc12 [Example 17, 5-((4-chlorobenzyl)(methyl)amino)-1-methyl-3-propyl-1H-pyrazolo[4,3-d]pyrimidin-7(6H)-one] | > 7.00 |

Further lines, results first:

| pIC50 | Structure (SMILES) |
| --- | --- |
| > 7.00 | CCCc1nn(C)c2c(=O)[nH]c(N(CCC(C)C)Cc3ccc(Cl)c(Cl)c3)nc12 [Example 45, 5-((3,4-dichlorobenzyl)(isopentyl)amino)-1-methyl-3-propyl-1H-pyrazolo[4,3-d]pyrimidin-7(6H)-one] |
| 6.30 to 7.00 | CCCc1nn(C)c2c(=O)[nH]c(N(C)CC(C)CC)nc12 (centres unmarked) [Example 112, 1-methyl-5-(methyl(2-methylbutyl)amino)-3-propyl-1H-pyrazolo[4,3-d]pyrimidin-7(6H)-one] |
| > 7.00 | CCCc1nn(C)c2c(=O)[nH]c(N(Cc3cccc(-n4cccn4)c3)CC(C)C)nc12 [Example 94] |
| 6.30 to 7.00 | CCCc1nn(C)c2c(=O)[nH]c(N(CC(C)C)CC(C)C)nc12 [Example 29, 5-(diisobutylamino)-1-methyl-3-propyl-1H-pyrazolo[4,3-d]pyrimidin-7(6H)-one] |
| > 7.00 | CCCc1nn(C)c2c(=O)[nH]c(N(Cc3cccc(-n4cccc4)c3)CC(C)C)nc12 [Example 101] |
